The values that follow come from patent publication US20070225492A1 (priority 2004, published 2007).

Structures can show the parent of a compound that is named as a salt.

Consider `CCC(=O)N1CC2CC(C1)N2C/C=C(\C)c1ccccc1` (as salt: hydrochloride), for which the melting point (in general, the temperature of the solid-liquid transition) lay within 123 to 125 °C.
Then `CCC(=O)N1CC2CC(C1)N2C/C=C(\CC)c1ccccc1` (as salt: hydrochloride), with 160 to 163 °C.
